Conditions: 283.16 K, Liquid, Vibrating tube method

CCCC(=O)OCC(COC(=O)CCC)(COC(=O)CCC)COC(=O)CCC [pentaerythritol tetrabutyrate]
Conditions | mass density [kg/m3]
6243.9 kPa | 1062.8
6250.7 kPa | 1062.7
6257.4 kPa | 1062.7
6265.2 kPa | 1062.8
6271.9 kPa | 1062.7
6278.8 kPa | 1062.7
6300.1 kPa | 1062.8
6308.2 kPa | 1062.8
6314.8 kPa | 1062.8
6321.7 kPa | 1062.7
6328.1 kPa | 1062.7
6336.4 kPa | 1062.8
6343.5 kPa | 1062.8
6350.2 kPa | 1062.8
6357.3 kPa | 1062.8
6365.3 kPa | 1062.7
6372 kPa | 1062.8
6379.3 kPa | 1062.6
6387.5 kPa | 1062.7
6394.3 kPa | 1062.7
6401.4 kPa | 1062.9
6408.5 kPa | 1062.8
6416.8 kPa | 1062.8
6423.7 kPa | 1062.9
6432.1 kPa | 1062.8
6439.2 kPa | 1062.8
6446.1 kPa | 1062.8
6453.2 kPa | 1062.8
6460.5 kPa | 1062.8
6469.1 kPa | 1062.8
6476 kPa | 1062.8
6483.3 kPa | 1062.8
6491.8 kPa | 1062.9
6498.7 kPa | 1062.8
6505.9 kPa | 1062.9
6513.4 kPa | 1062.8
6522.2 kPa | 1062.9
6529.1 kPa | 1062.9
6536.5 kPa | 1062.8
6543.9 kPa | 1062.9
6552.9 kPa | 1062.9
6560.5 kPa | 1062.9
6567.3 kPa | 1062.9
6575.9 kPa | 1062.8
6583.2 kPa | 1062.9
6590.8 kPa | 1062.9
6598.2 kPa | 1062.9
6606.8 kPa | 1062.9
6614.3 kPa | 1062.9
6621.5 kPa | 1062.9
6630.5 kPa | 1062.9
6638.3 kPa | 1062.9
6645.9 kPa | 1062.8
6653.6 kPa | 1062.9
6662.1 kPa | 1063
6669.8 kPa | 1062.9
6678.8 kPa | 1063
6685.9 kPa | 1063
6693.8 kPa | 1063
6701.4 kPa | 1063.1
6710.6 kPa | 1063
6718.2 kPa | 1062.9
6725.8 kPa | 1063
6735.1 kPa | 1062.8
6742.9 kPa | 1063.1
6750.9 kPa | 1063
6759.3 kPa | 1062.9
6766.9 kPa | 1062.9
6774.9 kPa | 1063
6784.2 kPa | 1063
6799.4 kPa | 1063
6808.2 kPa | 1063.1
6815.3 kPa | 1063
6822.2 kPa | 1063
6830 kPa | 1063.1
6835.8 kPa | 1063.1
6840.7 kPa | 1063.1
6845.5 kPa | 1063
6861.6 kPa | 1063
6890.3 kPa | 1063
6919.1 kPa | 1063
6948.8 kPa | 1063
6983.9 kPa | 1063.1
7013.2 kPa | 1063.2
7043.3 kPa | 1063.1
7073.9 kPa | 1063.2
7111.3 kPa | 1063.2
7141.9 kPa | 1063.2
7172.4 kPa | 1063.1
7231.8 kPa | 1063.2
7286.9 kPa | 1063.4
7348.1 kPa | 1063.3
7377.4 kPa | 1063.2
7488.6 kPa | 1063.5
7519.7 kPa | 1063.4
7758.9 kPa | 1063.6
7783.9 kPa | 1063.7
7814.3 kPa | 1063.5
7838.8 kPa | 1063.7
7861.2 kPa | 1063.7
7886.6 kPa | 1063.7
7908.5 kPa | 1063.6
7930.2 kPa | 1063.7
7952.2 kPa | 1063.7
7978.4 kPa | 1063.7
8000.3 kPa | 1063.7
8022.4 kPa | 1063.7
8048.9 kPa | 1063.8
8071.7 kPa | 1063.7
8094.5 kPa | 1063.8
8121.4 kPa | 1063.8
8144.2 kPa | 1063.9
8166.8 kPa | 1063.7
8194.2 kPa | 1063.8
8217.7 kPa | 1063.9
8241.7 kPa | 1063.9
8269.4 kPa | 1063.8
8316.5 kPa | 1063.8
8340.2 kPa | 1063.9
8369.1 kPa | 1063.9
8393.5 kPa | 1063.9
8418.1 kPa | 1063.9
8448 kPa | 1063.9
8472.3 kPa | 1064
8501.9 kPa | 1064.2
8527.3 kPa | 1064
8553.2 kPa | 1064.1
8580.4 kPa | 1064
8605.5 kPa | 1064
8631.2 kPa | 1064.1
8662.6 kPa | 1064
8688.3 kPa | 1064
8719.9 kPa | 1064.1
8746.3 kPa | 1064.2
8772.8 kPa | 1064.2
8799 kPa | 1064.1
8831.6 kPa | 1064.1
8858.5 kPa | 1064.2
8886.1 kPa | 1064.3
8920.4 kPa | 1064.2
8949 kPa | 1064.2
8976.4 kPa | 1064.3
9004.9 kPa | 1064.3
9038.9 kPa | 1064.3
9067 kPa | 1064.4
9095.4 kPa | 1064.4
9129.5 kPa | 1064.3
9159 kPa | 1064.5
9187.9 kPa | 1064.3
9222.8 kPa | 1064.4
9252.1 kPa | 1064.4
9282.2 kPa | 1064.4
9318.6 kPa | 1064.4
9349.3 kPa | 1064.5
9379.8 kPa | 1064.5
9411 kPa | 1064.4
9447.8 kPa | 1064.7
9478.5 kPa | 1064.7
9515.9 kPa | 1064.6
9547.2 kPa | 1064.6
9578.8 kPa | 1064.6
9616.9 kPa | 1064.6
9649.2 kPa | 1064.6
9681.5 kPa | 1064.6
9714.5 kPa | 1064.6
9755.2 kPa | 1064.8
9788.8 kPa | 1064.7
9830.3 kPa | 1064.6
9864.7 kPa | 1064.7
9896.4 kPa | 1064.8
9925.9 kPa | 1064.9
9960.2 kPa | 1064.8
9989.6 kPa | 1064.9
10025 kPa | 1064.8
10056 kPa | 1064.9
10087 kPa | 1064.9
10121 kPa | 1065
10145 kPa | 1065.1
10167 kPa | 1064.9
10189 kPa | 1064.9
10215 kPa | 1064.9
10238 kPa | 1065
10260 kPa | 1065.1
10278 kPa | 1064.9
10293 kPa | 1065.1
10311 kPa | 1065
10327 kPa | 1065
10342 kPa | 1065
10358 kPa | 1065
10377 kPa | 1065.1
10392 kPa | 1065.1
10408 kPa | 1065.2
10427 kPa | 1065
10443 kPa | 1065.1
10459 kPa | 1065.2
10478 kPa | 1065.1
10494 kPa | 1065.2
10510 kPa | 1065.3
10526 kPa | 1065.2
10545 kPa | 1065.3
10561 kPa | 1065.2
10578 kPa | 1065.2
10597 kPa | 1065.2
10613 kPa | 1065.3
10630 kPa | 1065.3
10646 kPa | 1065.2
10666 kPa | 1065.2
10682 kPa | 1065.2
10699 kPa | 1065.3
10719 kPa | 1065.4
10735 kPa | 1065.3
10755 kPa | 1065.2
10773 kPa | 1065.3
10789 kPa | 1065.4
10806 kPa | 1065.3
10827 kPa | 1065.4
10845 kPa | 1065.2
10863 kPa | 1065.3
10879 kPa | 1065.4
10900 kPa | 1065.5
10917 kPa | 1065.4
10934 kPa | 1065.4
10955 kPa | 1065.4
10972 kPa | 1065.4
10990 kPa | 1065.3
11010 kPa | 1065.4
11028 kPa | 1065.5
11046 kPa | 1065.4
11067 kPa | 1065.5
11086 kPa | 1065.4
11104 kPa | 1065.4
11122 kPa | 1065.5
11144 kPa | 1065.5
11162 kPa | 1065.7
11180 kPa | 1065.5
11202 kPa | 1065.6
11220 kPa | 1065.5
11238 kPa | 1065.6
11257 kPa | 1065.4
11279 kPa | 1065.6
11298 kPa | 1065.7
11316 kPa | 1065.6
11339 kPa | 1065.7
11479 kPa | 1065.6
11499 kPa | 1065.8
11522 kPa | 1065.7
11541 kPa | 1065.8
11561 kPa | 1065.7
11584 kPa | 1065.8
11604 kPa | 1065.8
11624 kPa | 1065.8
11643 kPa | 1065.8
11970 kPa | 1065.9
12038 kPa | 1066.1
12063 kPa | 1066.2
12084 kPa | 1066.1
12106 kPa | 1066.2
12132 kPa | 1066
12154 kPa | 1066.1
12175 kPa | 1066.1
12198 kPa | 1066.1
12224 kPa | 1066.2
12246 kPa | 1066.2
12268 kPa | 1066.1
12294 kPa | 1066.2
12316 kPa | 1066.3
12338 kPa | 1066.3
12365 kPa | 1066.3
12388 kPa | 1066.2
12410 kPa | 1066.3
12437 kPa | 1066.3
12460 kPa | 1066.2
12483 kPa | 1066.3
12510 kPa | 1066.3
12533 kPa | 1066.3
12556 kPa | 1066.3
12584 kPa | 1066.4
12607 kPa | 1066.4
12630 kPa | 1066.3
12659 kPa | 1066.4
12682 kPa | 1066.4
12705 kPa | 1066.3
12734 kPa | 1066.3
12758 kPa | 1066.4
12784 kPa | 1066.6
12809 kPa | 1066.5
12838 kPa | 1066.5
12862 kPa | 1066.4
12886 kPa | 1066.5
12911 kPa | 1066.6
12940 kPa | 1066.6
12965 kPa | 1066.6
12994 kPa | 1066.6

Source: the NIST ThermoML archive (doi:10.1021/je060271a)
